Where “and” joins values, the source holds several entries; their conditions need not be identical. Equal values may be shown once.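 The compound was tested at five concentrations on cells cultured in 96-well plates, with a 48-hour exposure period. Abbreviation: GI50, concentration required for 50% inhibition of growth. TGI: concentration producing complete growth inhibition.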
Columns and labels:
Experiment in all cases: NCI anticancer screen, dose series, 48 h
SK-MEL-5 melanoma = tested on: SK-MEL-5 melanoma
HL-60(TB) leukemia = tested on: HL-60(TB) leukemia
HT29 colon = tested on: HT29 colon
HCT-116 colon = tested on: HCT-116 colon
MALME-3M melanoma = tested on: MALME-3M melanoma
SF-268 CNS = tested on: SF-268 CNS
KM12 colon = tested on: KM12 colon
MOLT-4 leukemia = tested on: MOLT-4 leukemia
OVCAR-8 ovarian = tested on: OVCAR-8 ovarian
K-562 leukemia = tested on: K-562 leukemia

SMILES	TGI (SK-MEL-5 melanoma)	TGI (HL-60(TB) leukemia)	TGI (HT29 colon)	TGI (HCT-116 colon)	TGI (MALME-3M melanoma)	TGI (SF-268 CNS)	TGI (KM12 colon)	TGI (MOLT-4 leukemia)	TGI (OVCAR-8 ovarian)	TGI (K-562 leukemia)	GI50 (SK-MEL-5 melanoma)	GI50 (HL-60(TB) leukemia)	GI50 (HT29 colon)	GI50 (HCT-116 colon)	GI50 (MALME-3M melanoma)	GI50 (SF-268 CNS)	GI50 (KM12 colon)	GI50 (MOLT-4 leukemia)	GI50 (OVCAR-8 ovarian)	GI50 (K-562 leukemia)
Cc1ccc(C2=C(Cl)C(=O)C(c3ccc(C)cc3)=C(Cl)C2=O)cc1	> 100 µM	> 100 µM	> 100 µM	> 100 µM	> 100 µM	> 100 µM	> 100 µM	> 100 µM	> 100 µM	> 100 µM										
COc1ccc(/C(C)=C(\c2ccc(Cl)cc2)c2ccc(OCCN3CCCCCC3)cc2)cc1F	5.27 µM	7.11 µM	> 16.7 µM	4.51 µM	4.72 µM	> 16.7 µM	7.04 µM	11.8 µM	> 16.7 µM	16.4 µM	2.89 µM	3.25 µM	0.611 µM	1.98 µM	2.25 µM	6.42 µM	1.7 µM	3.91 µM	5.09 µM	0.828 µM
C=C(Cn1c2ccccc2c(=O)c2ccccc21)c1ccc(C(=O)Nc2ccccc2N)cc1	> 100 µM	> 26.9 µM	> 33.6 µM	> 100 µM	> 100 µM	> 100 µM	> 100 µM	> 26 µM	> 100 µM	> 100 µM	4.58 µM	0.662 µM	2.52 µM	4.5 µM	6.45 µM	5.74 µM	2.43 µM	0.767 µM	> 100 µM	1.35 µM
CN(C)c1ccc(N=C2C=CC(=C(C#N)C#N)c3ccccc32)cc1	0.713 µM	0.391 µM	10.4 µM	5.26 µM	17.1 µM	8.1 µM	12 µM	8.04 µM	1.75 µM	5.71 µM										
Nc1nc(=S)c2[nH]cnc2[nH]1		9.38 µM and 17.5 µM and 2.37 µM	121 µM and > 250 µM		10.9 µM and 24.7 µM and 29.3 µM	> 100 µM and 149 µM and 84 µM				74.1 µM and 8.6 µM	1.59 µM and 2.68 µM and 6.68 µM	0.894 µM	0.544 µM	0.336 µM	0.583 µM and 3.13 µM and 1.43 µM	0.525 µM and 0.926 µM	0.816 µM and 3.25 µM and 3.14 µM	0.368 µM and 0.488 µM	0.374 µM and 0.432 µM and 0.91 µM	0.488 µM
OCC(O)C(O)C(O)C(O)c1nn[nH]n1 (stereo not given)	> 100 µM	> 100 µM	> 100 µM	> 100 µM	> 100 µM	> 100 µM	> 100 µM	> 100 µM	> 100 µM	> 100 µM										
COC(=O)[C@H](Cc1cn(C)cn1)NC(=O)[C@@H](NC(=O)Nc1cc(C(F)(F)F)cc(C(F)(F)F)c1)C(C)C	> 10 µM	> 10 µM	4.89 µM	3.55 µM	> 10 µM	4.87 µM	4.22 µM	> 10 µM	5.22 µM	> 10 µM	2.98 µM	> 10 µM	2.23 µM	1.82 µM	> 10 µM	2.02 µM	1.98 µM	3.16 µM	2.16 µM	4.74 µM
CNCc1ccc(-c2[nH]c3cc(F)cc4c3c2CCNC4=O)cc1	28.1 µM	41.3 µM	76.3 µM	38.6 µM	36.1 µM	66 µM	45.3 µM	68 µM	77.5 µM	43.9 µM	14.7 µM	20.9 µM	19.5 µM	13.1 µM	17 µM	22.8 µM	20 µM	21.9 µM	17.4 µM	18 µM
COc1cc(/C=C2\C(=O)N(C)c3ccccc32)cc(OC)c1OC	27.8 µM	> 100 µM	> 100 µM	30.7 µM	> 100 µM	> 100 µM	30.1 µM	74.3 µM	95.2 µM	> 100 µM	10.1 µM	7.26 µM	14.7 µM	11 µM	82.7 µM	0.793 µM	11.2 µM	12 µM	22.7 µM	5.02 µM
CC1=C2[C@@H](CC1)[C@]1(C)O[C@@](C3CC3)(C[C@H]1OC(=O)CO)[C@H]2OC(=O)/C=C/c1ccccc1	30.5 µM	42.6 µM	32.2 µM	30.9 µM	32.8 µM	23.1 µM	32.3 µM	36.9 µM	15.4 µM	46 µM	16.7 µM	15.6 µM	16.1 µM	16 µM	15.6 µM	4.03 µM	16.6 µM	15.1 µM	0.0834 µM	16.1 µM

From PubChem BioAssay (NCI)
